From patent US20110275583A1, “Synergistic active compound combinations” (priority 2010, published 2011)
Where two headings read alike, the source gives them in different places.

Tests used:
Type in all cases: in vivo
[1] = test system: armyworm (Spodoptera frugiperda); experiment: Spodoptera frugiperda larvae test (sprayed cabbage leaves); settings: Spodoptera frugiperda, single active compound
Text: (§1) The expected action for a given combination of two active compounds can be calculated as follows, using the formula of S. R. Colby, Weeds 15 (1967), 20-22: • If • X is the kill rate, expressed as % of the untreated control, when employing active compound A at an application rate of m g/ha or in a concentration of in ppm, • Y is the kill rate, expressed as % of the untreated control, when employing active compound B at an application rate of n g/ha or in a concentration of n ppm and • E is the kill rate, expressed as % of the untreated control, when employing active compounds A and B at application rates of m and n g/ha or in a concentration of m and n ppm, • then
(§2) If the actual kill rate exceeds the calculated value, the action of the combination is superadditive, i.e. a synergistic effect is present. In this case, the actually observed kill rate must exceed the value calculated using the above formula for the expected kill rate (E).
(§3) Solvent: 78 parts by weight of acetone • • 1.5 parts by weight of dimethylformamide
(§4) Emulsifier: 0.5 part by weight of alkylaryl polyglycol ether
(§5) To produce a suitable preparation of active compound, 1 part by weight of active compound is mixed with the stated amounts of solvent and emulsifier, and the concentrate is diluted with emulsifier-containing water to the desired concentration.
Cabbage leaves (Brassica oleracea) are treated by being sprayed with the preparation of active compound of the desired concentration and are populated with the armyworm (Spodoptera frugiperda) while the leaves are still moist.
After the desired period of time, the kill in % is determined. 100% means that all caterpillars have been killed; 0% means that none of the caterpillars have been killed. The kill rates determined are entered, into Colby's formula.

[2] = test system: green peach aphid (Myzus persicae); experiment: Myzus persicae test (spray treatment of infested cabbage leaves)
Text: as §1, §2, §3, §4, §5
Cabbage leaves (Brassica oleracea) which are heavily infested by the green peach aphid (Myzus persicae) are treated by spraying with the active compound preparation of the desired concentration.
After the desired period of time, the kill in % is determined. 100% means that all of the aphids have been killed; 0% means that none of the aphids have been killed. The kill rates determined are entered into Colby's formula.

[3] = test system: larvae of the mustard beetle (Phaedon cochleariae); experiment: Phaedon cochleariae larvae test (sprayed cabbage leaves); settings: single active compound
Text: as §1, §2, §3, §4, §5
Cabbage leaves (Brassica oleracea) are treated by spraying with the active compound preparation of the desired concentration and populated with larvae of the mustard beetle (Phaedon cochleariae) while the leaves are still moist.
After the desired period of time, the kill in % is determined. 100% means that all beetle larvae have been killed; 0% means that none of the beetle larvae have been killed. The kill rates determined are entered into Colby's formula.

[4] = test system: greenhouse red spider mite (Tetranychus urticae); experiment: Tetranychus test, OP-resistant/spray treatment (bean leaf discs); settings: single active compound
Text: as §1, §2, §3, §4, §5
Discs of bean leaves (Phaseolus vulgaris) which are infested by all stages of the greenhouse red spider mite (Tetranychus urticae) are sprayed with an active compound preparation of the desired concentration.
After the desired period of time, the effect in % is determined. 100% means that all of the spider mites have been killed; 0% means that none of the spider mites have been killed.

[5] = 48 h, 2 d, read-out: Kill in % after 2 d
[6] = Myzus persicae, 144 h, single active compound, 6 d, read-out: Kill in % after 6 d
[7] = Phaedon cochleariae, 144 h, 20 g/ha, 6 d, read-out: Kill in % after 6 d
[8] = Myzus persicae, 24 h, after 1 d, read-out: Kill in % after 1d
[9] = Phaedon cochleariae, 144 h, 6 d, read-out: Kill in % after 6 d
[10] = Tetranychus urticae, foliar, 144 h, 6 d, read-out: Kill in % after 6 d
[11] = Tetranychus urticae, foliar, 144 h, 4 g/ha, 6 d, read-out: Kill in % after 6 d
[12] = Myzus persicae, 144 h, 0.16 g/ha, single active compound, 6 d, read-out: Kill in % after 6 d
[13] = 144 h, 6 d, read-out: Kill in % after 6 d
[14] = Tetranychus urticae, foliar, 144 h, 20 g/ha, 6 d, read-out: Kill in % after 6 d
[15] = Tetranychus urticae, foliar, 48 h, 4 g/ha, 2 d, read-out: Kill in % after 2 d
[16] = Phaedon cochleariae, 48 h, 20 g/ha, 2 d, read-out: Kill in % after 2 d
[17] = Tetranychus urticae, foliar, 48 h, 2 d, read-out: Kill in % after 2 d
[18] = Myzus persicae, 24 h, 0.16 g/ha, after 1 d, read-out: Kill in % after 1d

Compound: N#Cc1ccc(CC(=NNC(=O)Nc2ccc(OC(F)(F)F)cc2)c2cccc(C(F)(F)F)c2)cc1 (mixture of isomers) [metaflumizone]
- pest or weed control at 100 g/ha [1, 5]: 0%
- pest or weed control at 4 g/ha [2, 6]: 0%

Compound: Cc1c(F)c(F)c(COC(=O)[C@@H]2[C@H](/C=C(\Cl)C(F)(F)F)C2(C)C)c(F)c1F (racemic) [tefluthrin]
- pest or weed control at 20 g/ha [3, 7]: 33%
- pest or weed control at 4 g/ha [2, 8]: 70%

Compound: Cc1cc(F)c(-n2nc(C(F)(F)F)nc2N)cc1[S+]([O-])CC(F)(F)F (stereo not shown) [1-{2-fluoro-4-methyl-5-[(2,2,2-trifluoroethyl)sulphinyl]phenyl}-3-(trifluoromethyl)-1H-1,2,4-triazole-5-amine]
- pest or weed control at 100 g/ha [3, 9]: 0%
- pest or weed control at 0.8 g/ha [4, 10]: 0%
- pest or weed control at 4 g/ha [4, 11]: 80%

Compound: O=C1C=C(N(Cc2ccc(Cl)nc2)CC(F)F)CO1 [4-{[(6-chloropyrid-3-yl)methyl](2,2-difluoroethyl)amino}furan-2(5H)-one]
- pest or weed control at 4 g/ha [2, 8]: 70%

Compound: C/C(=N\C#N)N(C)Cc1ccc(Cl)nc1 [acetamiprid]
- pest or weed control at 20 g/ha [3, 7]: 0%
- pest or weed control at 0.16 g/ha [2, 12]: 0%

Compound: CC1(C)C(/C=C/C(=O)OC(C(F)(F)F)C(F)(F)F)C1C(=O)OC(C#N)c1cccc(Oc2ccccc2)c1 (stereo not shown) [acrinathrin]
- pest or weed control at 0.8 g/ha ([1]; 144 h, 0.8 g/ha, 6 d, read-out: Kill in % after 6 d): 0%

Compound: CC(C)N1C(=O)N(c2ccccc2)CS/C1=N\C(C)(C)C [buprofezin]
- pest or weed control at 500 g/ha ([2]; Myzus persicae, 144 h, 500 g/ha, single active compound, 6 d, read-out: Kill in % after 6 d): 0%

Compound: CNC(=O)Oc1cccc2c1OC(C)(C)C2 [carbofuran]
- pest or weed control at 4 g/ha [1, 13]: 0%

Compound: CCOCn1c(-c2ccc(Cl)cc2)c(C#N)c(Br)c1C(F)(F)F [chlorfenapyr]
- pest or weed control at 100 g/ha [1, 5]: 50%

Compound: CC1(C)C(C=C(Cl)Cl)C1C(=O)OC(C#N)c1cccc(Oc2ccccc2)c1 (stereo not shown) [cypermethrin]
- pest or weed control at 4 g/ha ([3]; Phaedon cochleariae, 48 h, 4 g/ha, 2 d, read-out: Kill in % after 2 d): 17%
- pest or weed control at 0.8 g/ha [2, 8]: 70%
- pest or weed control at 20 g/ha [4, 14]: 0%

Compound: CC(C)c1cc(Oc2ccccc2)cc(C(C)C)c1NC(=S)NC(C)(C)C [diafenthiuron]
- pest or weed control at 20 g/ha [2, 8]: 0%
- pest or weed control at 4 g/ha [4, 15]: 0%

Compound: CN/C(=N\[N+](=O)[O-])NCC1CCOC1 (stereo not shown) [dinotefuran]
- pest or weed control at 20 g/ha [3, 16]: 17%
- pest or weed control at 4 g/ha [2, 8]: 0%
- pest or weed control at 4 g/ha [2, 6]: 0%

Compound: CC[S+]([O-])c1c(C#N)nn(-c2c(Cl)cc(C(F)(F)F)cc2Cl)c1N (stereo not shown) [ethiprole]
- pest or weed control at 0.16 g/ha ([3]; Phaedon cochleariae, 144 h, 0.16 g/ha, 6 d, read-out: Kill in % after 6 d): 0%
- pest or weed control at 20 g/ha [2, 8]: 0%
- pest or weed control at 20 g/ha [4, 14]: 0%

Compound: Cc1nn(C)c(Oc2ccccc2)c1C=NOCc1ccc(C(=O)OC(C)(C)C)cc1 [fenpyroximate, Fenpyroximate]
- pest or weed control at 20 g/ha [3, 16]: 0%

Compound: Cc1cc(C(F)(C(F)(F)F)C(F)(F)F)ccc1NC(=O)c1cccc(I)c1C(=O)NC(C)(C)CS(C)(=O)=O [flubendiamide, Flubendiamide]
- pest or weed control at 4 g/ha [1, 13]: 33%
- pest or weed control at 0.8 g/ha [2, 6]: 0%

Compound: O=C(NC(=O)c1c(F)cccc1F)Nc1ccc(Oc2ccc(C(F)(F)F)cc2Cl)cc1F [flufenoxuron]
- pest or weed control at 20 g/ha [1, 13]: 33%

Compound: CC1(C)[C@H](/C=C(\Cl)C(F)(F)F)[C@@H]1C(=O)O[C@H](C#N)c1cccc(Oc2ccccc2)c1 [gamma-cyhalothrin]
- pest or weed control at 0.032 g/ha ([2]; Myzus persicae, 24 h, 0.032 g/ha, after 1 d, read-out: Kill in % after 1d): 0%
- pest or weed control at 0.8 g/ha [4, 17]: 0%

Compound: O=[N+]([O-])/N=C1\NCCN1Cc1ccc(Cl)nc1 [imidacloprid]
- pest or weed control at 20 g/ha [3, 7]: 33%
- pest or weed control at 0.16 g/ha [2, 18]: 0%

Compound: COC(=O)N(C(=O)N1COC2(C(=O)OC)Cc3cc(Cl)ccc3C2=N1)c1ccc(OC(F)(F)F)cc1 (stereo not shown) [indoxacarb]
- pest or weed control at 100 g/ha [1, 5]: 50%
- pest or weed control at 0.8 g/ha ([3]; Phaedon cochleariae, 144 h, 0.8 g/ha, 6 d, read-out: Kill in % after 6 d): 0%

Compound: O=C(NC(=O)c1c(F)cccc1F)Nc1cc(Cl)c(OC(F)(F)C(F)C(F)(F)F)cc1Cl (stereo not shown) [lufenuron]
- pest or weed control at 4 g/ha [1, 13]: 0%
- pest or weed control at 100 g/ha [3, 9]: 33%

Compound: COc1cccc(C(=O)NN(C(=O)c2cc(C)cc(C)c2)C(C)(C)C)c1C [methoxyfenozide]
- pest or weed control at 20 g/ha [1, 5]: 33%

Compound: O=C(NC(=O)c1c(F)cccc1F)Nc1ccc(OC(F)(F)C(F)OC(F)(F)F)c(Cl)c1 (stereo not shown) [novaluron]
- pest or weed control at 100 g/ha [3, 9]: 0%

Compound: CC(=O)N1C(=O)N(NCc2cccnc2)Cc2cc(C(F)(C(F)(F)F)C(F)(F)F)ccc21 [pyrifluquinazone]
- pest or weed control at 100 g/ha ([4]; Tetranychus urticae, foliar, 144 h, 100 g/ha, 6 d, read-out: Kill in % after 6 d): 0%

Compound: CCC(C)(C)C(=O)OC1=C(c2ccc(Cl)cc2Cl)C(=O)OC12CCCCC2 [spirodiclofen]
- pest or weed control at 4 g/ha [2, 6]: 0%
- pest or weed control at 0.8 g/ha [4, 10]: 20%

Compound: Cc1cc(C)c(C2=C(OC(=O)CC(C)(C)C)C3(CCCC3)OC2=O)c(C)c1 [spiromesifen]
- pest or weed control at 0.8 g/ha [2, 6]: 0%
- pest or weed control at 20 g/ha ([4]; Tetranychus urticae, foliar, 48 h, 20 g/ha, 2 d, read-out: Kill in % after 2 d): 0%

Compound: CCOC(=O)OC1=C(c2cc(C)ccc2C)C(=O)N[C@]12CC[C@@H](OC)CC2 [spirotetramat]
- pest or weed control at 0.16 g/ha [2, 12]: 0%

Compound: CC(c1ccc(C(F)(F)F)nc1)S(C)(=O)=NC#N (stereo not shown) [sulfoxaflor]
- pest or weed control at 4 g/ha [4, 11]: 0%

Compound: CCc1nn(C)c(C(=O)NCc2ccc(C(C)(C)C)cc2)c1Cl [tebufenpyrad, Tebufenpyrad]
- pest or weed control at 100 g/ha [3, 9]: 0%
- pest or weed control at 20 g/ha [2, 8]: 0%
- pest or weed control at 0.8 g/ha [4, 17]: 0%
- pest or weed control at 4 g/ha [4, 15]: 70%

Compound: N#C/N=C1\SCCN1Cc1ccc(Cl)nc1 [thiacloprid]
- pest or weed control at 20 g/ha [3, 7]: 0%
- pest or weed control at 0.16 g/ha [2, 18]: 0%
- pest or weed control at 0.16 g/ha [2, 12]: 0%

Compound: CN1COCN(Cc2cnc(Cl)s2)/C1=N/[N+](=O)[O-] [thiamethoxam]
- pest or weed control at 20 g/ha [3, 7]: 50%
- pest or weed control at 0.16 g/ha [2, 18]: 0%
- pest or weed control at 0.16 g/ha [2, 12]: 0%

Compound: CS/C(C)=N\OC(=O)N(C)SN(C)C(=O)O/N=C(\C)SC [thiodicarb]
- pest or weed control at 100 g/ha ([2]; Myzus persicae, 24 h, 100 g/ha, after 1 d, read-out: Kill in % after 1d): 0%

Compound: CC1(C)[C@H](C=C(Cl)Cl)[C@H]1C(=O)OCc1c(F)c(F)cc(F)c1F [transfluthrin]
- pest or weed control at 4 g/ha [1, 13]: 33%

Compound: O=C(NC(=O)c1ccccc1Cl)Nc1ccc(OC(F)(F)F)cc1 [triflumuron]
- pest or weed control at 4 g/ha [1, 13]: 17%

Compound: abamectin
- Kill in % after 6 d ([3]; 0.16 g/ha, 6 d): 0%
- Kill in % after 1d ([2]; 0.16 g/ha, after 1 d): 0%
- Kill in % after 6 d ([2]; 0.16 g/ha, single active compound, 6 d): 0%
- Kill in % after 2 d ([4]; 4 g/ha, 2 d): 0%

Compound: milbemectin
- Kill in % after 6 d ([3]; 20 g/ha, 6 d): 0%

Compound: spinetoram
- Kill in % after 2 d ([3]; 4 g/ha, 2 d): 50%

Compound: spinosad
- Kill in % after 2 d ([3]; 4 g/ha, 2 d): 33%
- Kill in % after 6 d ([4]; 20 g/ha, 6 d): 80%
